Several values for one entry are separate records, joined by “and”; a condition that tells them apart may be missing. Identical values can stand only once. Toxic doses and inconclusive results are not listed. No stated cut-off is given here; in the data, active means T/C of 150% or more; inactive means T/C below 125%.
Tested on: L1210 leukemia ip in BDF1 mice, survival T/C
Test: NCI In Vivo Anticancer Drug Screen. Data for tumor model L1210 Leukemia (intraperitoneal) in B6D2F1 (BDF1) mice
Settings: endpoint: mean survival time, higher = longer survival
Method in brief: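 Ratio derived from survival: compound-dosed mice over vehicle-dosed mice, all bearing a transplantable tumor.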

[1] = dose: 100.0 mg/kg/injection, schedule: Q04DX003 (ip), vehicle: Klucel (hydroxypropylcellulose) (HPC)
[2] = dose: 200.0 mg/kg/injection, schedule: Q04DX003 (ip), vehicle: Klucel (hydroxypropylcellulose) (HPC)
[3] = dose: 400.0 mg/kg/injection, schedule: Q04DX003 (ip), vehicle: Klucel (hydroxypropylcellulose) (HPC)
[4] = dose: 100.0 mg/kg/injection, schedule: Q01DX001 (ip), vehicle: saline
[5] = dose: 200.0 mg/kg/injection, schedule: Q01DX001 (ip), vehicle: saline
[6] = dose: 400.0 mg/kg/injection, schedule: Q01DX001 (ip), vehicle: saline
[7] = dose: 25.0 mg/kg/injection, schedule: Q04DX003 (ip), vehicle: Klucel (hydroxypropylcellulose) (HPC)
[8] = dose: 50.0 mg/kg/injection, schedule: Q04DX003 (ip), vehicle: Klucel (hydroxypropylcellulose) (HPC)
[9] = dose: 100.0 mg/kg/injection, schedule: Q01DX009 (ip), vehicle: Klucel (hydroxypropylcellulose) (HPC)
[10] = dose: 100.0 mg/kg/injection, schedule: Q01DX009 (ip), vehicle: saline with Tween-80
[11] = dose: 100.0 mg/kg/injection, schedule: Q04DX003 (ip), vehicle: saline with Tween-80
[12] = dose: 200.0 mg/kg/injection, schedule: Q04DX003 (ip), vehicle: saline with Tween-80
[13] = dose: 400.0 mg/kg/injection, schedule: Q04DX003 (ip), vehicle: saline with Tween-80
[14] = dose: 100.0 mg/kg/injection, schedule: Q01DX001 (ip), vehicle: Klucel (hydroxypropylcellulose) (HPC)
[15] = dose: 200.0 mg/kg/injection, schedule: Q01DX001 (ip), vehicle: Klucel (hydroxypropylcellulose) (HPC)
[16] = dose: 400.0 mg/kg/injection, schedule: Q01DX001 (ip), vehicle: Klucel (hydroxypropylcellulose) (HPC)
[17] = dose: 200.0 mg/kg/injection, schedule: Q01DX009 (ip), vehicle: Klucel (hydroxypropylcellulose) (HPC)
[18] = dose: 400.0 mg/kg/injection, schedule: Q01DX009 (ip), vehicle: Klucel (hydroxypropylcellulose) (HPC)
[19] = dose: 100.0 mg/kg/injection, schedule: Q04DX003 (ip), vehicle: saline

Measured: T/C

S=c1nc[nH]c2c1ncn2C1CCCCC1
inactive: dose: 47.0 mg/kg/injection, schedule: Q01DX Z (ip), vehicle: carboxymethylcellulose (CMC) 98 % of control | dose: 94.0 mg/kg/injection, schedule: Q01DX Z (ip), vehicle: carboxymethylcellulose (CMC) 98 % of control | dose: 94.0 mg/kg/injection, schedule: Q01DX Z (oral), vehicle: carboxymethylcellulose (CMC) 108 % of control | dose: 188.0 mg/kg/injection, schedule: Q01DX Z (ip), vehicle: carboxymethylcellulose (CMC) 106 % of control | dose: 188.0 mg/kg/injection, schedule: Q01DX Z (oral), vehicle: carboxymethylcellulose (CMC) 98 % of control | dose: 376.0 mg/kg/injection, schedule: Q01DX Z (ip), vehicle: carboxymethylcellulose (CMC) 102 % of control | dose: 376.0 mg/kg/injection, schedule: Q01DX Z (oral), vehicle: carboxymethylcellulose (CMC) 110 % of control | dose: 752.0 mg/kg/injection, schedule: Q01DX Z (oral), vehicle: carboxymethylcellulose (CMC) 106 % of control

O=C(OCCCl)Oc1c(Cl)cc([N+](=O)[O-])cc1[N+](=O)[O-]
inactive: [1] 101 % of control | [2] 101 % of control | [3] 86 % of control

COC(=O)C1C2CC3OC(=O)C1(C)C3C2 (stereo not drawn)
inactive: [4] 103 % of control | [5] 98 % of control | [6] 97 % of control

CC(C)(CBr)C(=O)O
inactive: [4] 95 % of control | [5] 95 % of control | [6] 100 % of control

CC1=C(Cl)C(=O)C(C)=C(Cl)C1=O
inactive: dose: 10.0 mg/kg/injection, schedule: Q01DX001 (ip), vehicle: saline 90 % of control | dose: 20.0 mg/kg/injection, schedule: Q01DX001 (ip), vehicle: saline 92 % of control | dose: 40.0 mg/kg/injection, schedule: Q01DX001 (ip), vehicle: saline 108 % of control

CCC1(C)CC(=O)NC(=O)C1
inactive: dose: 0.9 mg/kg/injection, schedule: Q01DX009 (ip), vehicle: saline 98 % of control | dose: 1.87 mg/kg/injection, schedule: Q01DX009 (ip), vehicle: saline 108 % of control | dose: 3.75 mg/kg/injection, schedule: Q01DX009 (ip), vehicle: saline 104 % of control | dose: 3.75 mg/kg/injection, schedule: Q04DX003 (ip), vehicle: saline 106 % of control | dose: 5.0 mg/kg/injection, schedule: Q04DX003 (ip), vehicle: saline with Tween-80 101 % of control | dose: 7.5 mg/kg/injection, schedule: Q01DX009 (ip), vehicle: saline 106 % of control | dose: 7.5 mg/kg/injection, schedule: Q04DX003 (ip), vehicle: saline 92 % of control | dose: 10.0 mg/kg/injection, schedule: Q04DX003 (ip), vehicle: saline with Tween-80 97 % of control | dose: 15.0 mg/kg/injection, schedule: Q01DX009 (ip), vehicle: saline 100 % of control | dose: 15.0 mg/kg/injection, schedule: Q04DX003 (ip), vehicle: saline 95 % of control

O=CNCCNC=O
inactive: dose: 100.0 mg/kg/injection, schedule: Q01DX009 (ip), vehicle: saline 102 % of control | dose: 200.0 mg/kg/injection, schedule: Q01DX009 (ip), vehicle: saline 104 % of control | dose: 400.0 mg/kg/injection, schedule: Q01DX009 (ip), vehicle: saline 98 % of control

Nc1c(Cl)cc(C(=O)NC2CC2)cc1Cl
inactive: dose: 6.25 mg/kg/injection, schedule: Q01DX009 (ip), vehicle: Klucel (hydroxypropylcellulose) (HPC) 103 % of control | dose: 12.5 mg/kg/injection, schedule: Q01DX009 (ip), vehicle: Klucel (hydroxypropylcellulose) (HPC) 94 % of control | dose: 25.0 mg/kg/injection, schedule: Q01DX009 (ip), vehicle: Klucel (hydroxypropylcellulose) (HPC) 92 % of control | [7] 104 % of control | dose: 50.0 mg/kg/injection, schedule: Q01DX009 (ip), vehicle: Klucel (hydroxypropylcellulose) (HPC) 97 % of control | [8] 98 % of control | [9] 100 % of control | [1] 104 % of control

OC1CSCSC1
inactive: [10] 98 % of control | [11] 98 % of control | dose: 200.0 mg/kg/injection, schedule: Q01DX009 (ip), vehicle: saline with Tween-80 94 % of control | [12] 98 % of control | dose: 400.0 mg/kg/injection, schedule: Q01DX009 (ip), vehicle: saline with Tween-80 94 % of control | [13] 98 % of control

O=C(O)CCc1ccc(-c2ccccc2)[nH]1
inactive: [14] 106 % of control | [15] 104 % of control | [16] 106 % of control

COC(=O)CC(Cc1cc(OC)ccc1OC)(C(=O)OC)C(=O)OC
inactive: dose: 12.5 mg/kg/injection, schedule: Q04DX003 (ip), vehicle: Klucel (hydroxypropylcellulose) (HPC) 102 % of control | [7] 94 % of control | [8] 98 % of control | [14] 106 % of control | [1] 105 % of control | [15] 97 % of control | [2] 103 % of control | [16] 98 % of control | [3] 105 % of control

O=C(OC1OCC(OCc2ccccc2)C(OCc2ccccc2)C1OCc1ccccc1)c1ccccc1 (stereo not drawn)
inactive: [11] 94 % of control | [12] 94 % of control | [13] 91 % of control

Cc1ccc(S(=O)(=O)N2CC(O)C=Cc3ccccc32)cc1 (stereo not drawn)
inactive: dose: 100.0 mg/kg/injection, schedule: Q01DX001 (ip), vehicle: carboxymethylcellulose (CMC) 107 % of control | dose: 200.0 mg/kg/injection, schedule: Q01DX001 (ip), vehicle: carboxymethylcellulose (CMC) 105 % of control | dose: 400.0 mg/kg/injection, schedule: Q01DX001 (ip), vehicle: carboxymethylcellulose (CMC) 110 % of control

NC(=O)C[n+]1cccc(C(=O)Nc2ccc(Cl)cc2)c1
inactive: [11] 98 % of control | [12] 101 % of control

CCOC(=O)c1cc2nc(C(C)C)n(Cc3ccccc3)c2cc(C(=O)OCC)c1=O
inactive: [14] 96 % of control | [9] 104 % of control and 89 % of control | dose: 100.0 mg/kg/injection, schedule: Q04DX002 (ip), vehicle: Klucel (hydroxypropylcellulose) (HPC) 98 % of control and 105 % of control | [1] 97 % of control | [15] 91 % of control | [17] 97 % of control and 89 % of control | dose: 200.0 mg/kg/injection, schedule: Q04DX002 (ip), vehicle: Klucel (hydroxypropylcellulose) (HPC) 96 % of control | [2] 100 % of control | [16] 100 % of control | [18] 98 % of control | dose: 400.0 mg/kg/injection, schedule: Q04DX002 (ip), vehicle: Klucel (hydroxypropylcellulose) (HPC) 88 % of control and 89 % of control | [3] 100 % of control

CC[N+](CC)(CC)CCOC(=O)C1C2CC3OC(=O)C1C3C2 (stereo not drawn)
inactive: [19] 96 % of control

CC1=CC(C)(C)NC(=S)N1c1ccccc1
inactive: [1] 103 % of control | [17] 86 % of control | [2] 103 % of control | [18] 87 % of control | [3] 101 % of control

NC(=O)CN1C(=O)C2C3CCC(O3)C2C1=O (stereo not drawn)
inactive: dose: 25.0 mg/kg/injection, schedule: Q04DX003 (ip), vehicle: saline with Tween-80 89 % of control | dose: 50.0 mg/kg/injection, schedule: Q04DX003 (ip), vehicle: saline with Tween-80 89 % of control | [11] 96 % of control | [19] 107 % of control | dose: 400.0 mg/kg/injection, schedule: Q04DX003 (ip), vehicle: saline 95 % of control

COc1ccc(NC(=S)NN)cc1
inactive: dose: 25.0 mg/kg/injection, schedule: Q01DX009 (ip), vehicle: saline with Tween-80 103 % of control | dose: 50.0 mg/kg/injection, schedule: Q01DX009 (ip), vehicle: saline with Tween-80 89 % of control | [10] 95 % of control
